Several values for one entry are separate records, joined by “and”; a condition that tells them apart may be missing. Equal values may be shown once. Toxic doses and inconclusive results are not listed. Cut-off read from the data, not from the text of the source: active = T/C of 150% or more; inactive = T/C below 125%.
Test system: L1210 leukemia ip in BDF1 mice, survival T/C
Experiment: NCI In Vivo Anticancer Drug Screen. Data for tumor model L1210 Leukemia (intraperitoneal) in B6D2F1 (BDF1) mice
Conditions: higher = longer survival
How it was run: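 Ratio derived from survival: compound-dosed mice over vehicle-dosed mice, all bearing a transplantable tumor.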

Measured: T/C

N=[N+]=CC(=O)OCC(N)C(=O)O (stereo not given)
inactive: endpoint: mean survival time, dose: 0.06 mg/kg/injection, schedule: Q#A X Z (ip), vehicle: saline 117 % of control | endpoint: mean survival time, dose: 0.43 mg/kg/injection, schedule: Q01DX009 (ip), vehicle: saline 111 % of control | endpoint: mean survival time, dose: 0.5 mg/kg/injection, schedule: Q01DX010 (ip), vehicle: saline 119 % of control | endpoint: mean survival time, dose: 0.5 mg/kg/injection, schedule: Q01DX Z (ip), vehicle: saline 117 % of control and 118 % of control | endpoint: mean survival time, dose: 0.85 mg/kg/injection, schedule: Q01DX009 (ip), vehicle: saline 105 % of control and 111 % of control | endpoint: mean survival time, dose: 1.0 mg/kg/injection, schedule: Q01DX Z (ip), vehicle: saline 115 % of control | endpoint: mean survival time, dose: 1.3 mg/kg/injection, schedule: Q04DX002 (ip), vehicle: saline 98 % of control and 112 % of control | endpoint: mean survival time, dose: 1.7 mg/kg/injection, schedule: Q01DX009 (ip), vehicle: saline 115 % of control | endpoint: mean survival time, dose: 1.8 mg/kg/injection, schedule: Q01DX Z (ip), vehicle: carboxymethylcellulose (CMC) 108 % of control and 120 % of control | endpoint: mean survival time, dose: 2.0 mg/kg/injection, schedule: Q01DX005 (ip), vehicle: saline 114 % of control | endpoint: mean survival time, dose: 2.0 mg/kg/injection, schedule: Q01DX Z (oral), vehicle: saline 110 % of control | endpoint: mean survival time, dose: 2.0 mg/kg/injection, schedule: Q01DX Z (sc), vehicle: saline 118 % of control | endpoint: mean survival time, dose: 2.5 mg/kg/injection, schedule: Q04DX002 (ip), vehicle: saline 106 % of control and 110 % of control | endpoint: mean survival time, dose: 3.5 mg/kg/injection, schedule: Q07DX003 (ip), vehicle: saline 115 % of control | endpoint: mean survival time, dose: 4.0 mg/kg/injection, schedule: Q01DX009 (ip), vehicle: saline 121 % of control | endpoint: mean survival time, dose: 4.0 mg/kg/injection, schedule: Q01DX Z (im), vehicle: saline 118 % of control | endpoint: mean survival time, dose: 4.0 mg/kg/injection, schedule: Q01DX Z (sc), vehicle: saline 119 % of control | endpoint: mean survival time, dose: 4.0 mg/kg/injection, schedule: Q03HX024 (oral), vehicle: saline 117 % of control | endpoint: mean survival time, dose: 4.0 mg/kg/injection, schedule: Q## X003 (ip), vehicle: saline 106 % of control | endpoint: mean survival time, dose: 5.0 mg/kg/injection, schedule: Q04DX002 (ip), vehicle: saline 117 % of control and 121 % of control | endpoint: mean survival time, dose: 7.0 mg/kg/injection, schedule: Q07DX003 (ip), vehicle: saline 117 % of control | endpoint: mean survival time, dose: 8.0 mg/kg/injection, schedule: Q01DX009 (ip), vehicle: saline 121 % of control | endpoint: mean survival time, dose: 8.0 mg/kg/injection, schedule: Q01DX009 (oral), vehicle: saline 105 % of control and 107 % of control | endpoint: mean survival time, dose: 8.0 mg/kg/injection, schedule: Q04DX003 (ip), vehicle: saline 113 % of control | endpoint: mean survival time, dose: 8.0 mg/kg/injection, schedule: Q## X002 (ip), vehicle: saline 102 % of control | endpoint: mean survival time, dose: 8.0 mg/kg/injection, schedule: Q## X003 (ip), vehicle: saline 107 % of control and 113 % of control | endpoint: mean survival time, dose: 8.0 mg/kg/injection, schedule: Q## X003 (oral), vehicle: saline 97 % of control and 101 % of control | endpoint: mean survival time, dose: 8.0 mg/kg/injection, schedule: Q## X024 (oral), vehicle: saline 106 % of control | endpoint: mean survival time, dose: 14.0 mg/kg/injection, schedule: Q01DX001 (ip), vehicle: saline 120 % of control and 121 % of control | endpoint: mean survival time, dose: 14.0 mg/kg/injection, schedule: Q07DX003 (ip), vehicle: saline 117 % of control | endpoint: mean survival time, dose: 16.0 mg/kg/injection, schedule: Q01DX001 (ip), vehicle: saline 108 % of control | endpoint: mean survival time, dose: 16.0 mg/kg/injection, schedule: Q01DX001 (sc), vehicle: saline 98 % of control | endpoint: mean survival time, dose: 16.0 mg/kg/injection, schedule: Q01DX006 (iv), vehicle: saline 107 % of control | endpoint: mean survival time, dose: 16.0 mg/kg/injection, schedule: Q04DX003 (ip), vehicle: saline 112 % of control | endpoint: mean survival time, dose: 16.0 mg/kg/injection, schedule: Q04DX003 (oral), vehicle: saline 101 % of control and 104 % of control | endpoint: mean survival time, dose: 16.0 mg/kg/injection, schedule: Q## X002 (ip), vehicle: saline 103 % of control | endpoint: mean survival time, dose: 16.0 mg/kg/injection, schedule: Q## X003 (ip), vehicle: saline 116 % of control | endpoint: mean survival time, dose: 16.0 mg/kg/injection, schedule: Q## X003 (oral), vehicle: saline 111 % of control and 113 % of control | endpoint: mean survival time, dose: 16.0 mg/kg/injection, schedule: Q## X024 (oral), vehicle: saline 97 % of control and 104 % of control | endpoint: mean survival time, dose: 18.0 mg/kg/injection, schedule: Q01DX014 (ip), vehicle: saline 117 % of control | endpoint: mean survival time, dose: 27.0 mg/kg/injection, schedule: Q01DX001 (ip), vehicle: saline 104 % of control | endpoint: mean survival time, dose: 28.0 mg/kg/injection, schedule: Q01DX001 (ip), vehicle: saline 120 % of control | endpoint: mean survival time, dose: 28.0 mg/kg/injection, schedule: Q07DX003 (ip), vehicle: saline 120 % of control | endpoint: mean survival time, dose: 32.0 mg/kg/injection, schedule: Q01DX001 (ip), vehicle: saline 111 % of control | endpoint: mean survival time, dose: 32.0 mg/kg/injection, schedule: Q01DX001 (sc), vehicle: saline 105 % of control | endpoint: mean survival time, dose: 32.0 mg/kg/injection, schedule: Q01DX009 (ip), vehicle: saline 102 % of control and 119 % of control | endpoint: mean survival time, dose: 32.0 mg/kg/injection, schedule: Q01DX009 (sc), vehicle: saline 109 % of control | endpoint: mean survival time, dose: 32.0 mg/kg/injection, schedule: Q01DX Z (ip), vehicle: saline 95 % of control | endpoint: mean survival time, dose: 32.0 mg/kg/injection, schedule: Q01DX Z (sc), vehicle: saline 118 % of control | endpoint: mean survival time, dose: 32.0 mg/kg/injection, schedule: Q04DX003 (ip), vehicle: saline 115 % of control | endpoint: mean survival time, dose: 32.0 mg/kg/injection, schedule: Q04DX003 (oral), vehicle: saline 110 % of control | endpoint: mean survival time, dose: 32.0 mg/kg/injection, schedule: Q## X002 (ip), vehicle: saline 120 % of control | endpoint: mean survival time, dose: 32.0 mg/kg/injection, schedule: Q## X003 (ip), vehicle: saline 117 % of control | endpoint: mean survival time, dose: 32.0 mg/kg/injection, schedule: Q## X003 (oral), vehicle: saline 109 % of control and 120 % of control | endpoint: mean survival time, dose: 32.0 mg/kg/injection, schedule: Q## X024 (oral), vehicle: saline 121 % of control | endpoint: mean survival time, dose: 35.0 mg/kg/injection, schedule: Q02DX010 (ip), vehicle: other 95 % of control | endpoint: mean survival time, dose: 36.0 mg/kg/injection, schedule: Q02DX010 (ip), vehicle: other 110 % of control | endpoint: mean survival time, dose: 40.0 mg/kg/injection, schedule: Q01DX001 (ip), vehicle: saline 112 % of control | endpoint: mean survival time, dose: 40.0 mg/kg/injection, schedule: Q01DX Z (ip), vehicle: saline 99 % of control | endpoint: mean survival time, dose: 52.0 mg/kg/injection, schedule: Q02DX010 (ip), vehicle: carboxymethylcellulose (CMC) 107 % of control | endpoint: mean survival time, dose: 54.0 mg/kg/injection, schedule: Q02DX010 (ip), vehicle: other 106 % of control | endpoint: mean survival time, dose: 60.0 mg/kg/injection, schedule: Q01DX001 (ip), vehicle: saline 121 % of control | endpoint: mean survival time, dose: 64.0 mg/kg/injection, schedule: Q01DX001 (ip), vehicle: saline 110 % of control | endpoint: mean survival time, dose: 64.0 mg/kg/injection, schedule: Q01DX001 (oral), vehicle: saline 103 % of control | endpoint: mean survival time, dose: 64.0 mg/kg/injection, schedule: Q01DX001 (sc), vehicle: saline 110 % of control | endpoint: mean survival time, dose: 64.0 mg/kg/injection, schedule: Q04DX003 (ip), vehicle: saline 104 % of control and 112 % of control | endpoint: mean survival time, dose: 64.0 mg/kg/injection, schedule: Q04DX003 (oral), vehicle: saline 106 % of control and 120 % of control | endpoint: mean survival time, dose: 64.0 mg/kg/injection, schedule: Q## X002 (ip), vehicle: saline 118 % of control | endpoint: mean survival time, dose: 64.0 mg/kg/injection, schedule: Q## X003 (oral), vehicle: saline 117 % of control and 119 % of control | endpoint: mean survival time, dose: 72.0 mg/kg/injection, schedule: Q## X032 (ip), vehicle: saline 115 % of control and 116 % of control | endpoint: mean survival time, dose: 80.0 mg/kg/injection, schedule: Q04DX002 (ip), vehicle: saline 104 % of control | endpoint: mean survival time, dose: 96.0 mg/kg/injection, schedule: Q03DX006 (ip), vehicle: saline 102 % of control | endpoint: mean survival time, dose: 108.0 mg/kg/injection, schedule: Q## X032 (ip), vehicle: saline 101 % of control | endpoint: mean survival time, dose: 112.0 mg/kg/injection, schedule: Q01DX001 (ip), vehicle: saline 114 % of control | endpoint: mean survival time, dose: 128.0 mg/kg/injection, schedule: Q01DX001 (sc), vehicle: saline 105 % of control | endpoint: mean survival time, dose: 128.0 mg/kg/injection, schedule: Q04DX003 (oral), vehicle: saline 110 % of control | endpoint: mean survival time, dose: 128.0 mg/kg/injection, schedule: Q## X024 (ip), vehicle: saline 112 % of control | endpoint: median survival time, dose: 0.25 mg/kg/injection, schedule: Q03HX024 (ip), vehicle: water 105 % of control | endpoint: median survival time, dose: 2.0 mg/kg/injection, schedule: Q01DX009 (ip), vehicle: water 120 % of control

CCOC(=O)N1Cc2cc3ccccc3nc2C1CC(=O)O (stereo not given)
inactive: endpoint: mean survival time, dose: 100.0 mg/kg/injection, schedule: Q01DX009 (ip), vehicle: Klucel (hydroxypropylcellulose) (HPC) 104 % of control | endpoint: mean survival time, dose: 100.0 mg/kg/injection, schedule: Q04DX003 (ip), vehicle: Klucel (hydroxypropylcellulose) (HPC) 105 % of control | endpoint: mean survival time, dose: 200.0 mg/kg/injection, schedule: Q01DX009 (ip), vehicle: Klucel (hydroxypropylcellulose) (HPC) 98 % of control | endpoint: mean survival time, dose: 200.0 mg/kg/injection, schedule: Q04DX003 (ip), vehicle: Klucel (hydroxypropylcellulose) (HPC) 88 % of control | endpoint: mean survival time, dose: 400.0 mg/kg/injection, schedule: Q01DX009 (ip), vehicle: Klucel (hydroxypropylcellulose) (HPC) 102 % of control | endpoint: mean survival time, dose: 400.0 mg/kg/injection, schedule: Q04DX003 (ip), vehicle: Klucel (hydroxypropylcellulose) (HPC) 96 % of control

Source: PubChem BioAssay AID248 (DTP/NCI, 2004)
